From publication PMC5972579 (Brain, 2018)

Legend:
GPR52 [1] = biological target: T1, GPR52 (Homo sapiens, UniProt Q9Y2T5); assay: inhibition of WO-[…])-stimulated cAMP; format: cell-based
GPR52 [2] = biological target: T1, GPR52; assay: intracellular cAMP HTRF assay; format: cell-based

T1 sequence (Q9Y2T5 whole entry): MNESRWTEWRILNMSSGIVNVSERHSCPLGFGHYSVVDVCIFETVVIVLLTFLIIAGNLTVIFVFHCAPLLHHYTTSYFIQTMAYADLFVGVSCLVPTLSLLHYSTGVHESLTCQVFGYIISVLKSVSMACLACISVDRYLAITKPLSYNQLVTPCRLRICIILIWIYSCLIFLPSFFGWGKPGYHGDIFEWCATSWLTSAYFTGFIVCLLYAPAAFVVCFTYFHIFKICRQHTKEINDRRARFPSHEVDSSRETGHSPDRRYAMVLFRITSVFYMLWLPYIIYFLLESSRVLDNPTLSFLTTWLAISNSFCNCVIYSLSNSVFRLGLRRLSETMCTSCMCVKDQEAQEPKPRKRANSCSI

Row | IC50 (GPR52 [1]) | EC50 (GPR52 [2]) | Compound
1 | 12 ± 0.7 µM |  | C=C1C(=O)O[C@@H]2/C=C(\C)CC3C=C(C[C@H](OC(=O)/C(C)=C\C)[C@@H]12)C(=O)O3 (mixture of isomers) [E7, (3S,4R,8R,9E)-10-methyl-5-methylidene-6,14-dioxo-7,13-dioxatricyclo[10.2.1.0⁴,⁸]pentadeca-1(15),9-dien-3-yl (2Z)-2-methylbut-2-enoate]
2 |  | 0.006 ± 0.0007 µM | Cc1nn(-c2cccc3cc(Cc4cccc(C(F)(F)F)c4)sc23)cc1C(=O)NCCO [WO-459, N-(2-hydroxyethyl)-3-methyl-1-[2-[3-(trifluoromethyl)benzyl]benzothiophen-7-yl]-1H-pyrazole-4-carboxamide]
